Reference: US10800792B2, “Inhibitors of Bruton's tyrosine kinase and method of their use” (JANSSEN PHARMACEUTICA NV, priority 2015, dated 2020)
Where two headings read alike, the source gives them in different places.

Biological target: unphosphorylated-BTK kinase domain (UP-BTK), GST-tagged human BTK (389-659aa) (Homo sapiens (Human), UniProt Q06187)
Experiment: BTK kinase Lanthascreen binding assay
Settings: pIC50 = negative log of the IC50 in molar; for IC50: read-out: BTK_I_binding pIC50 (converted)
Procedure, shortened: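 Lanthascreen competition binding; test compound vs fluorescent tracer on unphosphorylated BTK. Output: pIC50 (−log IC50, M).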

[1] = unphosphorylated-BTK kinase domain, 50 nM Tracer 236, 60 minutes
[2] = Lanthascreen tracer competition, 60 minutes incubation

unphosphorylated-BTK kinase domain (UP-BTK), GST-tagged human BTK (389-659aa), sequence (Q06187 389-659): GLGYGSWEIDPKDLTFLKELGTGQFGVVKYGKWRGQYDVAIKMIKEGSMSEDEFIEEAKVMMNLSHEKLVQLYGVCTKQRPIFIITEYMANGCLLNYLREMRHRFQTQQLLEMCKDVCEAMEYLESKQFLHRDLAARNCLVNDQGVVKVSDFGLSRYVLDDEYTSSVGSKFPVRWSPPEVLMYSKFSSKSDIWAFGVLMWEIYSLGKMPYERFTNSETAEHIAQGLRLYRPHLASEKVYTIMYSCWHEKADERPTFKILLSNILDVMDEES

SMILES | BTK_I_binding pIC50 [2] | further results
C=CC(=O)N1CCC[C@@H](NC(=O)c2sc3nccc4c3c2NC(=O)N4c2ccc(C)c(Cl)c2)C1 [Example 584, (R)—N-(1-Acryloylpiperidin-3-yl)-5-(3-chloro-4-methylphenyl)-4-oxo-4,5-dihydro-3H-1-thia-3,5,8-triazaacenaphthylene-2-carboxamide] |  | BTK_I_binding pIC50 [1]: 6.6
O=C(N[C@@H]1CCCNC1)c1sc2nccc3c2c1NC(=O)N3c1ccnc(-c2ccccc2)c1 [Example 585, (R)-4-Oxo-5-(2-phenylpyridin-4-yl)-N-(piperidin-3-yl)-4,5-dihydro-3H-1-thia-3,5,8-triazaacenaphthylene-2-carboxamide] |  | BTK_I_binding pIC50 [1]: 6.5
O=C(N[C@H]1CNC[C@H](O)C1)c1sc2nccc3c2c1NC(=O)N3c1ccc(Oc2ccccc2)cc1 [Example 586, N-((3R,5R)-5-Hydroxypiperidin-3-yl)-4-oxo-5-(4-phenoxyphenyl)-4,5-dihydro-3H-1-thia-3,5,8-triazaacenaphthylene-2-carboxamide] |  | IC50 [1]: 251 nM
CN1CC[C@@H](NC(=O)c2sc3nccc4c3c2NC(=O)N4c2cccc(-c3ccccc3)c2)C1 [Example 587, (R)-5-([1,1′-Biphenyl]-3-yl)-N-(1-methylpyrrolidin-3-yl)-4-oxo-4,5-dihydro-3H-1-thia-3,5,8-triazaacenaphthylene-2-carboxamide] |  | BTK_I_binding pIC50 [1]: 6.5
CO[C@H]1CNC[C@@H]1NC(=O)c1sc2nccc3c2c1NC(=O)N3c1ccc(Oc2ccccc2)cc1 [Example 588, N-((3S,4S)-4-Methoxypyrrolidin-3-yl)-4-oxo-5-(4-phenoxyphenyl)-4,5-dihydro-3H-1-thia-3,5,8-triazaacenaphthylene-2-carboxamide] |  | BTK_I_binding pIC50 [1]: 6.4
O=C(N[C@@H]1CCCN(C(=O)/C=C/CO)C1)c1sc2nccc3c2c1NC(=O)N3c1ccc(Oc2ccccc2)cc1 [Example 590, (R,E)-N-(1-(4-Hydroxybut-2-enoyl)piperidin-3-yl)-4-oxo-5-(4-phenoxyphenyl)-4,5-dihydro-3H-1-thia-3,5,8-triazaacenaphthylene-2-carboxamide] | 7.5 | 
C=CC(=O)N1CCC[C@@H](NC(=O)c2sc3nccc4c3c2NC(=O)N4c2ccnc(C3CCC3)c2)C1 [Example 591, (R)—N-(1-Acryloylpiperidin-3-yl)-5-(2-cyclobutylpyridin-4-yl)-4-oxo-4,5-dihydro-3H-1-thia-3,5,8-triazaacenaphthylene-2-carboxamide] | 7.5 | 
N#CN1CCC[C@@H](NC(=O)c2sc3nccc4c3c2NC(=O)N4c2ccc(Oc3ccccc3)cc2)C1 [Example 592, (R)—N-(1-Cyanopiperidin-3-yl)-4-oxo-5-(4-phenoxyphenyl)-4,5-dihydro-3H-1-thia-3,5,8-triazaacenaphthylene-2-carboxamide] | 7.4 | 
COCCC(=O)N1CCC[C@@H](NC(=O)c2sc3nccc4c3c2NC(=O)N4c2ccc(Oc3ccccc3)cc2)C1 [Example 593, (R)—N-(1-(3-Methoxypropanoyl)piperidin-3-yl)-4-oxo-5-(4-phenoxyphenyl)-4,5-dihydro-3H-1-thia-3,5,8-triazaacenaphthylene-2-carboxamide] | 7.2 | 
N#CN1CCC(NC(=O)c2sc3nccc4c3c2NC(=O)N4c2ccc(Oc3ccccc3)cc2)CC1 [Example 594, N-(1-Cyanopiperidin-4-yl)-4-oxo-5-(4-phenoxyphenyl)-4,5-dihydro-3H-1-thia-3,5,8-triazaacenaphthylene-2-carboxamide] | 7.1 | 
Cc1cc(Oc2ccccc2)cnc1N1C(=O)Nc2c(C(=O)N[C@@H]3CCCNC3)sc3nccc1c23 [Example 595, (R)-5-(3-Methyl-5-phenoxypyridin-2-yl)-4-oxo-N-(piperidin-3-yl)-4,5-dihydro-3H-1-thia-3,5,8-triazaacenaphthylene-2-carboxamide] | 7.1 | 
O=C(NC1CCN(C(=O)/C=C/CO)CC1)c1sc2nccc3c2c1NC(=O)N3c1ccc(Oc2ccccc2)cc1 [Example 596, (E)-N-(1-(4-Hydroxybut-2-enoyl)piperidin-4-yl)-4-oxo-5-(4-phenoxyphenyl)-4,5-dihydro-3H-1-thia-3,5,8-triazaacenaphthylene-2-carboxamide] | 6.9 | 
COCCC(=O)N1CCC(NC(=O)c2sc3nccc4c3c2NC(=O)N4c2ccc(Oc3ccccc3)cc2)CC1 [Example 597, N-(1-(3-Methoxypropanoyl)piperidin-4-yl)-4-oxo-5-(4-phenoxyphenyl)-4,5-dihydro-3H-1-thia-3,5,8-triazaacenaphthylene-2-carboxamide] | 6.9 | 
C=CC(=O)N1CCC[C@@H](NC(=O)c2sc3nccc4c3c2NC(=O)N4c2cccc(OC3CCC3)c2)C1 [Example 598] | 6.5 | 
O=C(N[C@@H]1CCNC1)c1sc2nccc3c2c1NC(=O)N3c1cccc(-c2ccccc2)c1 [Example 599, (R)-5-([1,1′-Biphenyl]-3-yl)-4-oxo-N-(pyrrolidin-3-yl)-4,5-dihydro-3H-1-thia-3,5,8-triazaacenaphthylene-2-carboxamide] | 6.5 | 
C=CC(=O)N1CCCC(Nc2sc3nccc4c3c2NC(=O)N4c2ccc(Oc3ccccc3)cc2C)C1 (stereo not drawn) [Example 600, 2-((1-Acryloylpiperidin-3-yl)amino)-5-(2-methyl-4-phenoxyphenyl)-3H-1-thia-3,5,8-triazaacenaphthylen-4(5H)-one] | 6.5 | 
CNCC(=O)N1CC[C@@H](NC(=O)c2sc3nccc4c3c2NC(=O)N4c2cccc(-c3ccccc3)c2)C1 [Example 601, (R)-5-([1,1′-Biphenyl]-3-yl)-N-(1-(2-(methylamino)acetyl)pyrrolidin-3-yl)-4-oxo-4,5-dihydro-3H-1-thia-3,5,8-triazaacenaphthylene-2-carboxamide] | 6.4 | 
O=C(N[C@@H]1CCNC1)c1sc2nccc3c2c1NC(=O)N3c1ccnc(-c2ccccc2)c1 [Example 602, (R)-4-Oxo-5-(2-phenylpyridin-4-yl)-N-(pyrrolidin-3-yl)-4,5-dihydro-3H-1-thia-3,5,8-triazaacenaphthylene-2-carboxamide] | 6.4 | 
O=C(N[C@@H]1CCCNC1)c1sc2nccc3c2c1NC(=O)N3c1cccc(C2CCC2)c1 [Example 603, (R)-5-(3-Cyclobutylphenyl)-4-oxo-N-(piperidin-3-yl)-4,5-dihydro-3H-1-thia-3,5,8-triazaacenaphthylene-2-carboxamide] | 6.3 | 
C=CC(=O)N1CCC[C@@H](NC(=O)c2sc3nccc4c3c2NC(=O)N4c2cccc(-c3ccccc3)n2)C1 [Example 604, (R)—N-(1-Acryloylpiperidin-3-yl)-4-oxo-5-(6-phenylpyridin-2-yl)-4,5-dihydro-3H-1-thia-3,5,8-triazaacenaphthylene-2-carboxamide] | 6.3 | 
Cc1cc(OC2CCC2)ccc1N1C(=O)Nc2c(C(=O)N[C@@H]3CCCNC3)sc3nccc1c23 [Example 605, (R)-5-(4-cyclobutoxy-2-methylphenyl)-4-oxo-N-(piperidin-3-yl)-4,5-dihydro-3H-1-thia-3,5,8-triazaacenaphthylene-2-carboxamide] |  | IC50 [2]: 501 nM
C=CC(=O)N1CCC(Nc2sc3nccc4c3c2NC(=O)N4c2ccc(Oc3ccccc3)cc2C)CC1 [Example 606, 2-((1-Acryloylpiperidin-4-yl)amino)-5-(2-methyl-4-phenoxyphenyl)-3H-1-thia-3,5,8-triazaacenaphthylen-4(5H)-one] | 6.2 | 
C=CC(=O)N1CCC[C@@H](NC(=O)c2sc3nccc4c3c2NC(=O)N4c2ccc(C)c(C(F)(F)F)c2)C1 [Example 607, (R)—N-(1-Acryloylpiperidin-3-yl)-5-(4-methyl-3-(trifluoromethyl)phenyl)-4-oxo-4,5-dihydro-3H-1-thia-3,5,8-triazaacenaphthylene-2-carboxamide] | 6.2 | 
Cc1cc(OC(C)C)ccc1N1C(=O)Nc2c(C(=O)N[C@@H]3CCCN(C(=O)/C=C/CN4C[C@@H]5OCCO[C@@H]5C4)C3)sc3nccc1c23 [Example 608, 5-(4-Isopropoxy-2-methylphenyl)-4-oxo-N—((R)-1-((E)-4-((4aR,7aS)-tetrahydro-2H-[1,4]dioxino[2,3-c]pyrrol-6(3H)-yl)but-2-enoyl)piperidin-3-yl)-4,5-dihydro-3H-1-thia-3,5,8-triazaacenaphthylene-2-carboxamide] | 6.2 | 
O=C(N[C@@H]1CCCNC1)c1sc2nccc3c2c1NC(=O)N3c1cc(-c2ccccc2)ccn1 [Example 610, (R)-4-Oxo-5-(4-phenylpyridin-2-yl)-N-(piperidin-3-yl)-4,5-dihydro-3H-1-thia-3,5,8-triazaacenaphthylene-2-carboxamide] | 6.2 | 
C=CC(=O)N1CCC[C@@H](NC(=O)c2sc3nccc4c3c2NC(=O)N4c2ccc(OC3COC3)cc2)C1 [Example 612, (R)—N-(1-Acryloylpiperidin-3-yl)-5-(4-(oxetan-3-yloxy)phenyl)-4-oxo-4,5-dihydro-3H-1-thia-3,5,8-triazaacenaphthylene-2-carboxamide] | 6.1 | 
O=C(N[C@@H]1CCCNC1)c1sc2nccc3c2c1NC(=O)N3c1cccc(OC2CCCC2)c1 [Example 613, (R)-5-(3-(Cyclopentyloxy)phenyl)-4-oxo-N-(piperidin-3-yl)-4,5-dihydro-3H-1-thia-3,5,8-triazaacenaphthylene-2-carboxamide] |  | IC50 [2]: 794 nM
